According to ChEMBL document CHEMBL4811255, “Antibacterial and Antifungal Polyketides from the Fungus Aspergillus unguis PSU-MF16” (J Nat Prod, 2021):
Converted amounts (≈) assume the structure as drawn. The source made the active and inactive calls. The rule behind the calls is not given here.

Key:
Staphylococcus aureus [1] = assay: Antibacterial activity against Staphylococcus aureus ATCC 25923 assessed as bacterial growth inhibition incubated for 18 hrs by CLSI protocol based agar microdilution method; assay type: functional
Staphylococcus aureus [2] = assay: Antibacterial activity against methicillin-resistant Staphylococcus aureus assessed as bacterial growth inhibition incubated for 18 hrs by CLSI protocol based agar microdilution method; assay type: functional
Candida albicans [3] = assay: Antifungal activity against Candida albicans NCPF 90028 assessed as fungal growth inhibition incubated for 24 to 48 hrs by CLSI protocol based agar microdilution method; assay type: functional; conditions: time 24-48 hrs
Cryptococcus neoformans [4] = assay: Antifungal activity against Cryptococcus neoformans ATCC 90113 assessed as fungal growth inhibition incubated for 24 to 48 hrs by CLSI protocol based agar microdilution method; assay type: functional; conditions: time 24-48 hrs
Nannizzia gypsea [5] = assay: Antifungal activity against Microsporum gypseum assessed as fungal growth inhibition incubated for 4 days by CLSI protocol based agar microdilution method; assay type: functional; conditions: 96 h, time 4 day
Vero [6] = assay: Cytotoxicity against African green monkey Vero cells by colorimetric assay; assay type: cell-based; conditions: Chlorocebus sabaeus
Staphylococcus aureus [7] = assay: Antibacterial activity against Staphylococcus aureus ATCC 25923 assessed as bacterial growth inhibition by CLSI protocol based assay; assay type: functional
Staphylococcus aureus [8] = assay: Antibacterial activity against methicillin-resistant Staphylococcus aureus assessed as bacterial growth inhibition by CLSI protocol based assay; assay type: functional
Cryptococcus neoformans [9] = assay: Antifungal activity against Cryptococcus neoformans ATCC 90113 assessed as fungal growth inhibition by CLSI protocol based assay; assay type: functional
Vero [10] = assay: Cytotoxicity against African green monkey Vero cells incubated for 24 hrs by MTT assay; assay type: cell-based; conditions: Chlorocebus sabaeus
Candida albicans [11] = assay: Antifungal activity against Candida albicans NCPF 90028 assessed as fungal growth inhibition at 50 ug/ml by CLSI protocol based assay; assay type: functional, organism-based; conditions: dose 50.0 µg/ml
Nannizzia gypsea [12] = assay: Antifungal activity against Microsporum gypseum assessed as fungal growth inhibition at 50 ug/ml by CLSI protocol based assay; assay type: functional, organism-based; conditions: dose 50.0 µg/ml
Staphylococcus aureus [13] = assay: Antibacterial activity against methicillin-resistant Staphylococcus aureus assessed as bacterial growth inhibition at 50 ug/ml by CLSI protocol based assay; assay type: functional, organism-based; conditions: dose 50.0 µg/ml
Vero [14] = assay: Cytotoxicity against African green monkey Vero cells at 50 ug/ml incubated for 24 hrs by MTT assay; assay type: cell-based; conditions: chlorocebus sabaeus, dose 50 µg/ml
Staphylococcus aureus [15] = assay: Antibacterial activity against Staphylococcus aureus ATCC 25923 assessed as bacterial growth inhibition at 50 ug/ml by CLSI protocol based assay; assay type: functional, organism-based; conditions: dose 50.0 µg/ml
Candida albicans [16] = assay: Antifungal activity against Candida albicans NCPF 90028 assessed as fungal growth inhibition by CLSI protocol based assay; assay type: functional
Nannizzia gypsea [17] = assay: Antifungal activity against Microsporum gypseum assessed as fungal growth inhibition by CLSI protocol based assay; assay type: functional

Row | SMILES | MIC (Staphylococcus aureus [1]) [mg/L] | MIC (Staphylococcus aureus [2]) [mg/L] | MIC (Candida albicans [3]) [mg/L] | MIC (Cryptococcus neoformans [4]) [mg/L] | MIC (Nannizzia gypsea [5]) [mg/L] | IC50 (Vero [6]) [mg/L] | MIC (Staphylococcus aureus [7]) [mg/L] | MIC (Staphylococcus aureus [8]) [mg/L] | MIC (Cryptococcus neoformans [9]) [mg/L] | IC50 (Vero [10]) [mg/L] | Activity (Candida albicans [11]) | Activity (Nannizzia gypsea [12]) | Activity (Staphylococcus aureus [13]) | Activity (Vero [14]) | Activity (Staphylococcus aureus [15]) | MIC (Candida albicans [16]) [mg/L] | MIC (Nannizzia gypsea [17]) [mg/L]
1 | C/C=C(\C)c1cc(OC(=O)c2c(C)cc(O)cc2O)c(C)c(O)c1C(=O)O | 0.25 (≈ 0.671 µM) | 0.5 (≈ 1.34 µM) | 0.25 (≈ 0.671 µM) | 0.25 (≈ 0.671 µM) | 1 (≈ 2.69 µM) | 4.6 (≈ 12.4 µM) | 128 (≈ 344 µM) | 128 (≈ 344 µM) | 32 (≈ 85.9 µM) | 110 (≈ 295 µM) | inactive | inactive |  |  |  |  | 
2 | Cc1c2ccncc2c(C)c2c1[nH]c1ccccc12 [ELLIPTECINE] |  |  |  |  |  | 4 (≈ 16.2 µM) |  |  |  |  |  |  |  |  |  |  | 
3 | C/C=C(\C)c1cc(O)c(C)c2c1Oc1c(C)c(O)cc(/C(C)=C/C)c1C(=O)O2 | 0.25 (≈ 0.657 µM) | 0.5 (≈ 1.31 µM) | 0.25 (≈ 0.657 µM) | 0.25 (≈ 0.657 µM) | 1 (≈ 2.63 µM) |  | 2 (≈ 5.26 µM) | 1 (≈ 2.63 µM) | 1 (≈ 2.63 µM) | 17 (≈ 44.7 µM) | inactive |  |  |  |  |  | 
4 | C/C=C(\C)c1cc(O)c(C)c2c1Oc1cc(O)cc(C)c1C(=O)O2 |  |  |  | 0.25 (≈ 0.766 µM) | 1 (≈ 3.06 µM) |  | 128 (≈ 392 µM) |  | 200 (≈ 613 µM) |  | inactive | inactive | inactive | Non-Toxic |  |  | 
5 | COC(=O)c1c(C)cc(O)cc1O [METHYL ORSELLINATE] | 0.25 (≈ 1.37 µM) | 0.5 (≈ 2.74 µM) | 0.25 (≈ 1.37 µM) | 0.25 (≈ 1.37 µM) | 1 (≈ 5.49 µM) | 4.6 (≈ 25.3 µM) |  |  | 200 (≈ 1100 µM) |  | inactive | inactive | inactive | Non-Toxic | inactive |  | 
6 | C/C=C(\C)c1c(Cl)c(O)c(C)c2c1Oc1cc(O)c(Cl)c(C)c1C(=O)O2 | 0.25 (≈ 0.633 µM) | 0.5 (≈ 1.27 µM) | 0.25 (≈ 0.633 µM) | 0.25 (≈ 0.633 µM) | 1 (≈ 2.53 µM) | 4.6 (≈ 11.6 µM) | 2 (≈ 5.06 µM) | 1 (≈ 2.53 µM) | 128 (≈ 324 µM) | 8.9 (≈ 22.5 µM) |  |  |  |  |  | 200 (≈ 506 µM) | 
7 | C/C=C(\C)c1c2c(c(C)c(O)c1C(=O)O)OC(=O)c1c(C)cc(O)cc1O2 | 0.25 (≈ 0.675 µM) | 0.5 (≈ 1.35 µM) | 0.25 (≈ 0.675 µM) | 0.25 (≈ 0.675 µM) | 1 (≈ 2.7 µM) | 4.6 (≈ 12.4 µM) |  |  | 200 (≈ 540 µM) |  | inactive | inactive | inactive | Non-Toxic | inactive |  | 
8 | C/C=C(\C)c1cc(O)c(C)c2c1C(=O)Oc1c(C)c(O)c(Cl)c(/C(C)=C/C)c1O2 | 0.25 (≈ 0.603 µM) | 0.5 (≈ 1.21 µM) | 0.25 (≈ 0.603 µM) | 0.25 (≈ 0.603 µM) | 1 (≈ 2.41 µM) | 4.6 (≈ 11.1 µM) | 0.5 (≈ 1.21 µM) | 0.5 (≈ 1.21 µM) | 0.5 (≈ 1.21 µM) | 16 (≈ 38.6 µM) | inactive |  |  |  |  |  | 
9 | Clc1ccccc1C(c1ccccc1)(c1ccccc1)n1ccnc1 [CLOTRIMAZOLE] |  |  |  |  | 2 (≈ 5.8 µM) |  |  |  |  |  |  |  |  |  |  |  | 
10 | C/C=C(\C)c1c(Cl)c(O)c(C)c2c1Oc1c(Cl)c(O)c(Cl)c(C)c1C(=O)O2 | 0.25 (≈ 0.582 µM) | 0.5 (≈ 1.16 µM) | 0.25 (≈ 0.582 µM) | 0.25 (≈ 0.582 µM) | 1 (≈ 2.33 µM) | 4.6 (≈ 10.7 µM) | 2 (≈ 4.65 µM) | 2 (≈ 4.65 µM) | 8 (≈ 18.6 µM) | 110 (≈ 256 µM) | inactive | inactive |  |  |  |  | 
11 | C/C=C(\C)c1cc(O)c(C)c(O)c1C(=O)Oc1cc(/C(C)=C/C)c(C(=O)O)c(O)c1C [AGONODEPSIDE B] |  | 0.5 (≈ 1.17 µM) |  | 0.5 (≈ 1.17 µM) | 0.5 (≈ 1.17 µM) |  |  | 16 (≈ 37.5 µM) |  |  |  |  |  |  |  |  | 
12 | C[C@@H]1[C@H](O)[C@@H](C)/C=C/C=C/C=C/C=C/C=C/C=C/C=C/[C@H](O[C@@H]2O[C@H](C)[C@@H](O)[C@H](N)[C@@H]2O)C[C@@H]2O[C@](O)(C[C@@H](O)C[C@@H](O)[C@H](O)CC[C@@H](O)C[C@@H](O)CC(=O)O[C@H]1C)C[C@H](O)[C@H]2C(=O)O [AMPHOTERICIN B] |  |  | 0.5 (≈ 0.541 µM) | 2 (≈ 2.16 µM) |  |  |  |  |  |  |  |  |  |  |  |  | 
13 | C=C(c1cc(O)c(C)c2c1Oc1cc(O)cc(C)c1C(=O)O2)[C@H](C)O |  |  |  | 0.5 (≈ 1.46 µM) | 0.5 (≈ 1.46 µM) |  |  |  |  |  |  |  |  |  |  |  | 
14 | C/C=C(\C)c1cc(O)c(C)c2c1C(=O)Oc1c(C)c(O)c(C(=O)O)c(/C(C)=C/C)c1O2 | 0.25 (≈ 0.589 µM) | 0.5 (≈ 1.18 µM) | 0.25 (≈ 0.589 µM) | 0.25 (≈ 0.589 µM) | 1 (≈ 2.36 µM) | 4.6 (≈ 10.8 µM) |  | 64 (≈ 151 µM) | 64 (≈ 151 µM) |  | inactive | inactive |  | Non-Toxic |  |  | 200 (≈ 471 µM)
15 | C/C=C(\C)c1cc(O)c(C)c(O)c1C(=O)Oc1cc2c(c(O)c1C)C(=O)O[C@@]2(C)CC | 0.25 (≈ 0.586 µM) | 0.5 (≈ 1.17 µM) | 0.25 (≈ 0.586 µM) | 0.25 (≈ 0.586 µM) | 1 (≈ 2.34 µM) | 4.6 (≈ 10.8 µM) | 200 (≈ 469 µM) | 200 (≈ 469 µM) | 200 (≈ 469 µM) | 45 (≈ 106 µM) | inactive | inactive |  |  |  |  | 
16 | C/C=C(\C)c1c(Cl)c(OC)c(C)c2c1Oc1c(Cl)c(O)c(Cl)c(C)c1C(=O)O2 | 0.25 (≈ 0.563 µM) | 0.5 (≈ 1.13 µM) | 0.25 (≈ 0.563 µM) | 0.25 (≈ 0.563 µM) | 1 (≈ 2.25 µM) | 4.6 (≈ 10.4 µM) | 4 (≈ 9.01 µM) | 8 (≈ 18 µM) | 16 (≈ 36.1 µM) | 57 (≈ 128 µM) | inactive | inactive |  |  |  |  | 
17 | C/C=C(\C)c1cc(O)c(C)c(OC(=O)c2c(/C(C)=C/C)cc(O)c(C)c2O)c1 [AGONODEPSIDE A] | 0.25 (≈ 0.654 µM) | 0.25 (≈ 0.654 µM) |  | 0.25 (≈ 0.654 µM) |  |  |  | 2 (≈ 5.23 µM) |  |  |  |  |  |  |  |  | 
18 | C/C=C(\C)c1cc(O)c(C)c2c1Oc1cc(O)c(Cl)c(C)c1C(=O)O2 |  | 0.5 (≈ 1.39 µM) | 0.25 (≈ 0.693 µM) | 0.25 (≈ 0.693 µM) | 1 (≈ 2.77 µM) | 4.6 (≈ 12.7 µM) | 8 (≈ 22.2 µM) | 8 (≈ 22.2 µM) | 32 (≈ 88.7 µM) | 86 (≈ 238 µM) |  |  |  |  |  | 8 (≈ 22.2 µM) | 8 (≈ 22.2 µM)
